Measurements taken from PubChem BioAssay AID2060901 (Molecular Pharmacology Branch, DTP, NCI, 2025).

Test system: 422866-222-R5-J1-PDC complex spheroids viability
Experiment: Anticancer human tumor 422866-222-R5-J1-PDC patient-derived pancreatic adenocarcinoma cell line growth inhibition [RAS]
Conditions: for IC50: curve of first compound; for viability, T/C: stronger effect = lower value; active = viability on the fitted dose curve at most 10% of control; inactive = the rest
Outline: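 Multi-cell-type spheroids: tumor cells plus HUVEC endothelial cells and mesenchymal stem cells. RAS-pathway inhibitors were combined with targeted agents, each dosed in half-log steps down from clinical Cmax, or from 10 microM when Cmax was unknown.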

[1] = second compound 0.0316 µM, first compound 0.0316 µM
[2] = second compound 0.0316 µM, first compound 0.1 µM
[3] = second compound 0.0316 µM, first compound 0.316 µM
[4] = second compound 0.0316 µM, first compound 1 µM
[5] = second compound 0.0316 µM, first compound 3.16 µM
[6] = second compound 0.0316 µM, first compound 10 µM
[7] = second compound 0.1 µM, first compound 0.0316 µM
[8] = second compound 0.1 µM, first compound 0.1 µM
[9] = second compound 0.1 µM, first compound 0.316 µM
[10] = second compound 0.1 µM, first compound 1 µM
[11] = second compound 0.1 µM, first compound 3.16 µM
[12] = second compound 0.1 µM, first compound 10 µM
[13] = second compound 0.316 µM, first compound 0.0316 µM
[14] = second compound 0.316 µM, first compound 0.1 µM
[15] = second compound 0.316 µM, first compound 0.316 µM
[16] = second compound 0.316 µM, first compound 1 µM
[17] = second compound 0.316 µM, first compound 3.16 µM
[18] = second compound 0.316 µM, first compound 10 µM
[19] = second compound 1 µM, first compound 0.0316 µM
[20] = second compound 1 µM, first compound 0.1 µM
[21] = second compound 1 µM, first compound 0.316 µM
[22] = second compound 1 µM, first compound 1 µM
[23] = second compound 1 µM, first compound 3.16 µM
[24] = second compound 1 µM, first compound 10 µM
[25] = second compound 3.16 µM, first compound 0.0316 µM
[26] = second compound 3.16 µM, first compound 0.1 µM
[27] = second compound 3.16 µM, first compound 0.316 µM
[28] = second compound 3.16 µM, first compound 1 µM
[29] = second compound 3.16 µM, first compound 3.16 µM
[30] = second compound 3.16 µM, first compound 10 µM
[31] = second compound 10 µM, first compound 0.0316 µM
[32] = second compound 10 µM, first compound 0.1 µM
[33] = second compound 10 µM, first compound 0.316 µM
[34] = second compound 10 µM, first compound 1 µM
[35] = second compound 10 µM, first compound 3.16 µM
[36] = second compound 10 µM, first compound 10 µM
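Note: spheroids exposed to compounds for 7 days.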
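Throughout, for viability, T/C: 100% = DMSO vehicle control viability.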

CC(=O)OC12COC1CC(O)C1(C)C(=O)C(O)C3=C(C)C(OC(=O)C(O)C(NC(=O)OC(C)(C)C)c4ccccc4)CC(O)(C(OC(=O)c4ccccc4)C21)C3(C)C (stereo not drawn) + C#Cc1c(F)ccc2cc(O)cc(-c3ncc4c(N5CC6CCC(C5)N6)nc(OCC56CCCN5CC(F)C6)nc4c3F)c12
< 0.0316 µM: IC50 (second compound 1 µM) | IC50 (second compound 3.16 µM) | IC50 (second compound 10 µM)
> 10 µM: IC50 (second compound 0.0316 µM) | IC50 (second compound 0.1 µM)
inactive: viability, T/C [1] 55.1% | viability, T/C [2] 74.1% | viability, T/C [3] 77% | viability, T/C [4] 83.1% | viability, T/C [5] 76.5% | viability, T/C [6] 69.7% | viability, T/C [7] 70.7% | viability, T/C [8] 61.3% | viability, T/C [9] 56.5% | viability, T/C [10] 65.5% | viability, T/C [11] 64.1% | viability, T/C [12] 61.7% | viability, T/C [13] 55.7% | viability, T/C [14] 48.2% | viability, T/C [15] 46.6% | viability, T/C [16] 56.8% | viability, T/C [17] 67.4% | viability, T/C [18] 55.1% | viability, T/C [19] 34% | viability, T/C [20] 33.1% | viability, T/C [21] 37.5% | viability, T/C [22] 36.5% | viability, T/C [23] 41% | viability, T/C [24] 35.4% | viability, T/C [25] 21.2% | viability, T/C [26] 27.4% | viability, T/C [27] 29.6% | viability, T/C [28] 29.6% | viability, T/C [29] 32% | viability, T/C [30] 29.5% | viability, T/C [31] 23.1% | viability, T/C [32] 22.2% | viability, T/C [33] 22.2% | viability, T/C [34] 20.9% | viability, T/C [35] 24.1% | viability, T/C [36] 22.9%
0.0316 µM: IC50 (second compound 0.316 µM)

Cc1nc(N2CCC3(CC2)COC(C)C3N)c(CO)nc1Sc1ccnc(N)c1Cl (stereo not drawn) + C#Cc1c(F)ccc2cc(O)cc(-c3ncc4c(N5CC6CCC(C5)N6)nc(OCC56CCCN5CC(F)C6)nc4c3F)c12
0.126 µM: IC50 (second compound 0.1 µM)
0.0616 µM: IC50 (second compound 0.316 µM)
inactive: viability, T/C [1] 74.7% | viability, T/C [2] 65.3% | viability, T/C [3] 49.2% | viability, T/C [4] 42.2% | viability, T/C [5] 39.6% | viability, T/C [6] 35.9% | viability, T/C [7] 80.5% | viability, T/C [8] 52.5% | viability, T/C [9] 38.9% | viability, T/C [10] 36.8% | viability, T/C [11] 34.8% | viability, T/C [12] 30.5% | viability, T/C [13] 62.4% | viability, T/C [14] 40.5% | viability, T/C [15] 33.2% | viability, T/C [16] 30.3% | viability, T/C [17] 29.9% | viability, T/C [18] 26.7% | viability, T/C [19] 37.6% | viability, T/C [20] 46.7% | viability, T/C [21] 24.3% | viability, T/C [22] 22% | viability, T/C [23] 24.5% | viability, T/C [24] 20.9% | viability, T/C [25] 24.5% | viability, T/C [26] 23.1% | viability, T/C [27] 20.3% | viability, T/C [28] 16.5% | viability, T/C [29] 18% | viability, T/C [30] 18.3% | viability, T/C [31] 16.5% | viability, T/C [32] 19.6% | viability, T/C [33] 18% | viability, T/C [34] 14.8% | viability, T/C [35] 15% | viability, T/C [36] 16.3%
0.328 µM: IC50 (second compound 0.0316 µM)
< 0.0316 µM: IC50 (second compound 1 µM) | IC50 (second compound 3.16 µM) | IC50 (second compound 10 µM)

NC1c2ccccc2OC12CCN(c1cnc3c(N4CCCc5ncccc54)n[nH]c3n1)CC2 (stereo not drawn) + C#Cc1c(F)ccc2cc(O)cc(-c3ncc4c(N5CC6CCC(C5)N6)nc(OCC56CCCN5CC(F)C6)nc4c3F)c12
inactive: viability, T/C [1] 53% | viability, T/C [2] 49.2% | viability, T/C [3] 34.8% | viability, T/C [4] 38.4% | viability, T/C [5] 29.5% | viability, T/C [6] 23.6% | viability, T/C [7] 44% | viability, T/C [8] 43.3% | viability, T/C [9] 32.8% | viability, T/C [10] 28.7% | viability, T/C [11] 27.7% | viability, T/C [12] 25.5% | viability, T/C [13] 38.1% | viability, T/C [14] 36.2% | viability, T/C [15] 24.1% | viability, T/C [16] 26.4% | viability, T/C [17] 24.2% | viability, T/C [18] 19.7% | viability, T/C [19] 27.1% | viability, T/C [20] 23.9% | viability, T/C [21] 25.2% | viability, T/C [22] 17% | viability, T/C [23] 19.6% | viability, T/C [24] 15% | viability, T/C [25] 17.8% | viability, T/C [26] 19.8% | viability, T/C [27] 16.1% | viability, T/C [28] 17.4% | viability, T/C [29] 17.5% | viability, T/C [30] 14.9% | viability, T/C [31] 15.7% | viability, T/C [32] 16.5% | viability, T/C [33] 14.3% | viability, T/C [34] 16.2% | viability, T/C [35] 15.6% | viability, T/C [36] 16.1%
0.0558 µM: IC50 (second compound 0.0316 µM)
< 0.0316 µM: IC50 (second compound 0.1 µM) | IC50 (second compound 0.316 µM) | IC50 (second compound 1 µM) | IC50 (second compound 3.16 µM) | IC50 (second compound 10 µM)

Nc1ccn(C2OC(CO)C(O)C2(F)F)c(=O)n1 (stereo not drawn) + C#Cc1c(F)ccc2cc(O)cc(-c3ncc4c(N5CC6CCC(C5)N6)nc(OCC56CCCN5CC(F)C6)nc4c3F)c12
< 0.00316 µM: IC50 (second compound 1 µM) | IC50 (second compound 3.16 µM) | IC50 (second compound 10 µM)
0.113 µM: IC50 (second compound 0.0316 µM)
inactive: viability, T/C (second compound 0.0316 µM, first compound 0.00316 µM) 90.8% | viability, T/C (second compound 0.0316 µM, first compound 0.01 µM) 84.9% | viability, T/C [1] 65.7% | viability, T/C [2] 51.1% | viability, T/C [3] 42.1% | viability, T/C [4] 34.1% | viability, T/C (second compound 0.1 µM, first compound 0.00316 µM) 108% | viability, T/C (second compound 0.1 µM, first compound 0.01 µM) 65.6% | viability, T/C [7] 52.4% | viability, T/C [8] 37.6% | viability, T/C [9] 39.6% | viability, T/C [10] 38.5% | viability, T/C (second compound 0.316 µM, first compound 0.00316 µM) 63.9% | viability, T/C (second compound 0.316 µM, first compound 0.01 µM) 49.8% | viability, T/C [13] 48.8% | viability, T/C [14] 45.6% | viability, T/C [15] 38.1% | viability, T/C [16] 41.9% | viability, T/C (second compound 1 µM, first compound 0.00316 µM) 41.2% | viability, T/C (second compound 1 µM, first compound 0.01 µM) 41.3% | viability, T/C [19] 32.4% | viability, T/C [20] 35.9% | viability, T/C [21] 33.3% | viability, T/C [22] 25.5% | viability, T/C (second compound 3.16 µM, first compound 0.00316 µM) 25.8% | viability, T/C (second compound 3.16 µM, first compound 0.01 µM) 29.7% | viability, T/C [25] 24.5% | viability, T/C [26] 27.7% | viability, T/C [27] 23.4% | viability, T/C [28] 23% | viability, T/C (second compound 10 µM, first compound 0.00316 µM) 24.8% | viability, T/C (second compound 10 µM, first compound 0.01 µM) 26.2% | viability, T/C [31] 23.3% | viability, T/C [32] 19.8% | viability, T/C [33] 21.6% | viability, T/C [34] 17.8%
0.0159 µM: IC50 (second compound 0.316 µM)
0.0292 µM: IC50 (second compound 0.1 µM)
